From patent US20230257385A1, “SALT AND SOLID FORMS OF TABERNANTHALOG” (priority 2021, published 2023)

Legend:
[1] = Qualitative solubility screen of Tabernanthalog sorbate salt (Example 10, Experiment 2); type: physicochemical; conditions: Tabernanthalog sorbate salt (input Form A), one solvent per sample; for Assignment (wet pellet XRPD): product crystallised in solubility screen, centrifuged wet pellet; for Assignment (dry pellet XRPD): same pellets dried under reduced pressure
Experimental: The qualitative solubility screen was carried out to determine the range of solvents incorporated into future suspension equilibration panels. Products that crystallised were centrifuged and analysed as wet pellet by XRPD, dried under reduced pressure and re-analysed by XRPD, with selected samples further analysed by TGA and ^1H NMR spectroscopy.
If insoluble at 5 vol, the solvent quantity was increased to 10 vol, 15 vol and 20 vol of the respective solvent. The suspensions that occurred upon cooling down were centrifuged and the solvent wet pellets were analysed by XRPD.
The insoluble suspensions were additionally worked up for XRPD analysis. The resultant powder patterns were subsequently cross-referenced against the input supplied material.

[2] = Suspension equilibration of sorbate salt at 20 and 40° C. (Example 10, Experiments 3, 4, 9); type: physicochemical; conditions: one solvent per sample; for Observations (t = 1 d @ 20° C.) / Observations (t = 10 d @ 20° C.) / Observations (t = 1 d @ 40° C.) / Observations (t = 10 d @ 40° C.): sorbate salt Form A in 5 vol solvent; for Observations (t = 0 @ 20° C.) / Observations (t = 0 @ 40° C.): sorbate salt Form A, ca. 50 mg in 5 vol solvent; for XRPD (IPC, 6 d, wet): moist pellet after 6 d; for XRPD (post oven dried): pellet after oven drying
Experimental: The purpose of this panel is to determine if Form A evolves into a supra-ordinate form. The companion panel at 40° C. set-point is in place to detect enantiotropic behaviour via different relative proportions in different solvents. XRPD data of the moist pellets obtained from the suspension equilibration study at 20° C.
The relevant solvent (5 vol) was added to the appropriate vial and the suspensions were stirred and warmed to the predetermined temperature with stirring. […]

[3] = suspension equilibration at 20° C.
[4] = suspension equilibration at 40° C.

SMILES	Assignment (wet pellet XRPD) [1]	Assignment (dry pellet XRPD) [1]	Observations (t = 1 d @ 20° C.) [2]	Observations (t = 10 d @ 20° C.) [2]	Observations (t = 0 @ 20° C.) [2]	other results
CC=CC=CC(=O)O.COc1ccc2c3c([nH]c2c1)CCN(C)CC3.O	Pattern #1	Converted into Form A				
COc1ccc2c3c([nH]c2c1)CCN(C)CC3.O=C(O)/C=C/C(=O)O [Experiment 2-Sample C1]	Form A	Form A				
COc1ccc2c3c([nH]c2c1)CCN(C)CC3 [Experiment 2-Sample D1]	Form A	Form A				Assignment (wet pellet XRPD) ([1]; listed as Experiment 2-Sample E1): Form A + split reflections 5.90º,
CC=CC=CC(=O)O.COc1ccc2c3c([nH]c2c1)CCN(C)CC3 [Experiment 2-Sample G1]	Form A	Form A				
CC=CC=CC(=O)O.COc1ccc2c3c([nH]c2c1)CCN(C)CC3 [Experiment 2-Sample H1]	Form A + new shoulders	Form A + new shoulders				
CC=CC=CC(=O)O.COc1ccc2c3c([nH]c2c1)CCN(C)CC3 [Experiment 2-Sample I1]	Oiled					
CC=CC=CC(=O)O.COc1ccc2c3c([nH]c2c1)CCN(C)CC3 [Experiment 2-Sample J1]	Form A, some shift of d-spacings	Form A				
CC=CC=CC(=O)O.COc1ccc2c3c([nH]c2c1)CCN(C)CC3 [Experiment 2-Sample L1]	Form A	Form A				
CC=CC=CC(=O)O.COc1ccc2c3c([nH]c2c1)CCN(C)CC3 [Experiment 2-Sample M1]	Form A + shoulder 22.89º 2	Form A + new shoulder				
C/C=C/C=C/C(=O)O.COc1ccc2c3c([nH]c2c1)CCN(C)CC3 [Experiment 2-Sample N1]	Form A + split reflections	Form A				
CC=CC=CC(=O)O.COc1ccc2c3c([nH]c2c1)CCN(C)CC3 [Experiment 2-Sample O1]	Form A + split reflections	Form A				
CC=CC=CC(=O)O.COc1ccc2c3c([nH]c2c1)CCN(C)CC3 [Experiment 2-Sample P1]	Form A	Form A				
CC=CC=CC(=O)O.COc1ccc2c3c([nH]c2c1)CCN(C)CC3 [Experiment 2-Sample Q1]	Form A + new shoulders	Form A				
CC=CC=CC(=O)O.COc1ccc2c3c([nH]c2c1)CCN(C)CC3 [Experiment 2-Sample R1]	Form A	Form A				
CC=CC=CC(=O)O.COc1ccc2c3c([nH]c2c1)CCN(C)CC3 [Experiment 3-Sample B]			Suspension	Suspension	Suspension	XRPD (IPC, 6 d, wet) [2, 3]: Form A; XRPD (post oven dried) [2, 3]: Form A
C/C=C/C=C/C(=O)O.COc1ccc2c3c([nH]c2c1)CCN(C)CC3 [Experiment 3-Sample C]			Suspension	Suspension	Suspension	XRPD (IPC, 6 d, wet) [2, 3]: Form A; XRPD (post oven dried) [2, 3]: Form A
CC=CC=CC(=O)O.COc1ccc2c3c([nH]c2c1)CCN(C)CC3 [Experiment 3-Sample F]			Suspension	Suspension	Suspension	XRPD (IPC, 6 d, wet) [2, 3]: Form A; XRPD (post oven dried) [2, 3]: Form A
CC=CC=CC(=O)O.COc1ccc2c3c([nH]c2c1)CCN(C)CC3 [Experiment 3-Sample L]			Suspension	Suspension	Suspension	XRPD (IPC, 6 d, wet) [2, 3]: Form A; XRPD (post oven dried) [2, 3]: Form A
CC=CC=CC(=O)O.COc1ccc2c3c([nH]c2c1)CCN(C)CC3 [Experiment 3-Sample M]			Suspension	Suspension	Suspension	XRPD (IPC, 6 d, wet) [2, 3]: Form A; XRPD (post oven dried) [2, 3]: Form A
CC=CC=CC(=O)O.COc1ccc2c3c([nH]c2c1)CCN(C)CC3 [Experiment 3-Sample N]			Suspension	Suspension	Suspension	XRPD (IPC, 6 d, wet) [2, 3]: Form A; XRPD (post oven dried) [2, 3]: Form A
CC=CC=CC(=O)O.COc1ccc2c3c([nH]c2c1)CCN(C)CC3 [Experiment 3-Sample O]			Suspension	Suspension	Suspension	XRPD (IPC, 6 d, wet) [2, 3]: Form A; XRPD (post oven dried) [2, 3]: Form A
CC=CC=CC(=O)O.COc1ccc2c3c([nH]c2c1)CCN(C)CC3 [Experiment 3-Sample R]			Suspension	Suspension	Suspension	XRPD (IPC, 6 d, wet) [2, 3]: Pattern #2; XRPD (post oven dried) [2, 3]: Form A
CC=CC=CC(=O)O.COc1ccc2c3c([nH]c2c1)CCN(C)CC3 [Experiment 3-Sample S]			Solution		Solution	
CC=CC=CC(=O)O.COc1ccc2c3c([nH]c2c1)CCN(C)CC3 [Experiment 3-Sample T]			Solution	Solution	Solution	
C/C=C/C=C/C(=O)O.COc1ccc2c3c([nH]c2c1)CCN(C)CC3 [Experiment 4-Sample A]						Observations (t = 1 d @ 40° C.) [2]: Suspension; Observations (t = 10 d @ 40° C.) [2]: Suspension; Observations (t = 0 @ 40° C.) [2]: Suspension; XRPD (IPC, 6 d, wet) [2, 4]: Form A; XRPD (post oven dried) [2, 4]: Form A
C/C=C/C=C/C(=O)O.COc1ccc2c3c([nH]c2c1)CCN(C)CC3 [Experiment 4-Sample B]						Observations (t = 1 d @ 40° C.) [2]: Suspension; Observations (t = 10 d @ 40° C.) [2]: Suspension; Observations (t = 0 @ 40° C.) [2]: Suspension; XRPD (IPC, 6 d, wet) [2, 4]: Form A; XRPD (post oven dried) [2, 4]: Form A
C/C=C/C=C/C(=O)O.COc1ccc2c3c([nH]c2c1)CCN(C)CC3 [Experiment 4-Sample C]						Observations (t = 1 d @ 40° C.) [2]: Suspension; Observations (t = 10 d @ 40° C.) [2]: Suspension; Observations (t = 0 @ 40° C.) [2]: Suspension; XRPD (IPC, 6 d, wet) [2, 4]: Form A; XRPD (post oven dried) [2, 4]: Form A
CC=CC=CC(=O)O.COc1ccc2c3c([nH]c2c1)CCN(C)CC3 [Experiment 4-Sample D]						Observations (t = 1 d @ 40° C.) [2]: Suspension; Observations (t = 10 d @ 40° C.) [2]: Suspension; Observations (t = 0 @ 40° C.) [2]: Suspension; XRPD (IPC, 6 d, wet) [2, 4]: Form A; XRPD (post oven dried) [2, 4]: Form A
C/C=C/C=C/C(=O)O.COc1ccc2c3c([nH]c2c1)CCN(C)CC3 [Experiment 4-Sample E]						Observations (t = 1 d @ 40° C.) [2]: Solution; Observations (t = 0 @ 40° C.) [2]: Partial; XRPD (IPC, 6 d, wet) [2, 4]: Pattern #5
CC=CC=CC(=O)O.COc1ccc2c3c([nH]c2c1)CCN(C)CC3 [Experiment 4-Sample F]						Observations (t = 1 d @ 40° C.) [2]: Partial; Observations (t = 0 @ 40° C.) [2]: Partial; XRPD (IPC, 6 d, wet) [2, 4]: Form A; XRPD (post oven dried) [2, 4]: Form A
